Assay results taken from patent US20260356856A1, “KRAS G12S AND G12C INHIBITORS” (MIRATI THERAPEUTICS, INC., priority 2023, published 2026).

Tests used:
[1] = biological target: T1, KRas G12C (Homo sapiens, UniProt P01116, G12C); assay: KRas binding assay, TR-FRET displacement of Cy5 labelled tracer; details: 60-minute incubation at room temperature, 1% DMSO, pH 7.5
T1 construct: Biotinylated KRas (corresponding to amino acids 1-169, produced at Accelegan Inc.); biotin (biotinylated); purchased Accelegan Inc
T1 sequence (P01116 1-169 isoform P01116-2 G12C): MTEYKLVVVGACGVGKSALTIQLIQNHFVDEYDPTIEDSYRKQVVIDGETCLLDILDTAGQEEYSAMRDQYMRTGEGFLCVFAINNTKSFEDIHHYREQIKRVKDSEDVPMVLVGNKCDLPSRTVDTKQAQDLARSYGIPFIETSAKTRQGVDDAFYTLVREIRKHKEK
In short: (§1)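 Room-temperature incubation (60 min) of compound with biotinylated KRas 1-169, tracer and Tb-streptavidin preceded the TR-FRET read. Final DMSO was 1%; buffer pH 7.5. Percent-of-control values went into a 4-parameter equation to give IC50.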

[2] = biological target: T2, KRas WT (Homo sapiens, UniProt P01116); assay: as above; details: 60-minute incubation at room temperature, 1% DMSO, pH 7.5
T2 construct: Biotinylated KRas (corresponding to amino acids 1-169, produced at Accelegan Inc.); biotin (biotinylated); purchased Accelegan Inc
T2 sequence (P01116 1-169 isoform P01116-2): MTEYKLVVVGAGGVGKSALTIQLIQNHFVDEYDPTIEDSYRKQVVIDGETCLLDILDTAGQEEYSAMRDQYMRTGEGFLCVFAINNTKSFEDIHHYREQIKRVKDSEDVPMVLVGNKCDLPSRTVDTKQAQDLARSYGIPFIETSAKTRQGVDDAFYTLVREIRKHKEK
In short: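 Tb-streptavidin captured biotinylated KRas (1-169) in HEPES 50 mM, DTT 1 mM, MgCl2 5 mM, Tween-20 0.005% (pH 7.5), alongside tracer and compound at 1% final DMSO. One hour at RT, then read; IC50 from 4-parameter POC fit.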

[3] = biological target: T3, KRas G12S (Homo sapiens, UniProt P01116, G12S); assay: as above; details: 60-minute incubation at room temperature, 1% DMSO, pH 7.5
T3 construct: Biotinylated KRas (corresponding to amino acids 1-169, produced at Accelegan Inc.); biotin (biotinylated); purchased Accelegan Inc
T3 sequence (P01116 1-169 isoform P01116-2 G12S): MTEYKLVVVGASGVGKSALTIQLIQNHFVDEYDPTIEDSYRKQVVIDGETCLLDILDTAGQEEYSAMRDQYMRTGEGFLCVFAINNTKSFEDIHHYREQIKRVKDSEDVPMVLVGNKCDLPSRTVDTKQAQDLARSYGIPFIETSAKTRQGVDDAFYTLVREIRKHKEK
In short: as §1

[4] = biological target: T4, KRas-mediated phosphorylation of ERK in MKN1 cells (Homo sapiens, UniProt P01116); assay: Inhibition of KRas-mediated phosphorylation of ERK (HTRF), MKN1 cells; type: cell-based; details: MKN1 cells (KRas WT); HTRF pERK; 3 h incubation
T4 construct: pERK HTRF read-out
T4 sequence (P01116 1-188 isoform P01116-2): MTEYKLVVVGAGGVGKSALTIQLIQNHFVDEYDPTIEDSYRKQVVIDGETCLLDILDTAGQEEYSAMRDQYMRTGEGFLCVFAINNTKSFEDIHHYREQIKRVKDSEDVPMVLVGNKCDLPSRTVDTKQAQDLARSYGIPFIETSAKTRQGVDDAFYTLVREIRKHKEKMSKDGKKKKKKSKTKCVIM
Procedure: Inhibition of KRas Phosphorylation of ERK (HTRF) by Exemplary Compounds of Formula (Ia) or (Ib)
Cisbio HTRF Advanced pERK Assay Catalog #64AERPEH • Cells: MKN1, PSN1 • Procedure: • 1. Day 1: Seed 6,000 cells/well −25 μl/well in 384-well white solid bottom plate; RPM1_10% FBS. Incubate overnight at 37 °C/5% CO2. • 2.

[5] = biological target: T5, KRas-mediated phosphorylation of ERK in A549 cells (Homo sapiens, UniProt P01116, G12S); assay: Inhibition of KRas-mediated phosphorylation of ERK (HTRF), A549 cells; type: cell-based; details: HTRF pERK, 3 h incubation
T5 construct: pERK HTRF read-out
T5 sequence (P01116 1-188 isoform P01116-2 G12S): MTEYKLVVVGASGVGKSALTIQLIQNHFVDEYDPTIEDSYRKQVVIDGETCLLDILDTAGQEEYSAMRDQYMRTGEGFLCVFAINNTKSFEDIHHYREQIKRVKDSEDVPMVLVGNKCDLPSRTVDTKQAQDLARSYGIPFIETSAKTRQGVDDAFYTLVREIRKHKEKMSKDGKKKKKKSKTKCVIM

[6] = biological target: T6, KRas-mediated phosphorylation of ERK in H358 cells (Homo sapiens, UniProt P01116, G12C); assay: Inhibition of KRas-mediated phosphorylation of ERK (HTRF), H358 cells; type: cell-based; details: HTRF pERK, 3 h incubation
T6 construct: pERK HTRF read-out
T6 sequence (P01116 1-188 isoform P01116-2 G12C): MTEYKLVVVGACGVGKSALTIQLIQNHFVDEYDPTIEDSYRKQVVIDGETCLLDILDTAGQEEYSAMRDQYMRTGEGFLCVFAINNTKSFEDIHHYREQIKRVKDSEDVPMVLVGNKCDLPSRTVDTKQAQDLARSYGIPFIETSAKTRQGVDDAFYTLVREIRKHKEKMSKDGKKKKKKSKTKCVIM

IC50 [1] [nM]	IC50 [2] [nM]	IC50 [3] [nM]	IC50 [4] [nM]	IC50 [5] [nM]	IC50 [6] [nM]	Compound
9	163	85	408	115	9	COc1ccccc1OC(=O)C1CCN(c2nc(OC[C@@]34CCCN3C[C@H](F)C4)nc3c(F)c(-c4ccc(F)c5sc(N)c(C#N)c45)c(Cl)cc23)CC1 [Example 300, 2-methoxyphenyl 1-(7-(2-amino-3-cyano-7-fluorobenzo[b]thiophen-4-yl)-6-chloro-8-fluoro-2-(((2R,7aS)-2-fluorotetrahydro-1H-pyrrolizin-7a(5H)-yl)methoxy)quinazolin-4-yl)piperidine-4-carboxylate]
11	10	14	40	145	84	CC(=O)N(C)C(=O)[C@@H]1C[C@H]1CNc1nc(OC[C@@]23CCCN2C[C@H](F)C3)nc2c(F)c(-c3ccc(F)c4sc(N)c(C#N)c34)c(Cl)cc12 [Example 238, trans-N-acetyl-2-(((7-(2-amino-3-cyano-7-fluorobenzo[b]thiophen-4-yl)-6-chloro-8-fluoro-2-(((2R,7aS)-2-fluorotetrahydro-1H-pyrrolizin-7a(5H)-yl)methoxy)quinazolin-4-yl)amino)methyl)-N-methylcyclopropane-1-carboxamide]
5	4	2	19	3	8	CC(=O)N(C)C(=O)[C@H]1CCCN(c2nc(OC[C@@]34CCCN3C[C@H](F)C4)nc3c(F)c(-c4ccc(F)c5sc(N)c(C#N)c45)c(Cl)cc23)CC1 (atropisomer, axis not shown; (aS)) [Example 256, (S)—N-acetyl-1-((S)-7-(2-amino-3-cyano-7-fluorobenzo[b]thiophen-4-yl)-6-chloro-8-fluoro-2-(((2R,7aS)-2-fluorotetrahydro-1H-pyrrolizin-7a(5H)-yl)methoxy)quinazolin-4-yl)-N-methylazepane-4-carboxamide]
11	10	8	200	7	7	Cc1ccn(C(=O)C2CCCN(c3nc(OC[C@@]45CCCN4C[C@H](F)C5)nc4c(F)c(-c5ccc(F)c6sc(N)c(C#N)c56)c(Cl)cc34)CC2)n1 (stereo partly drawn) [Example 130, 2-amino-4-(6-chloro-8-fluoro-2-(((2R,7aS)-2-fluorotetrahydro-1H-pyrrolizin-7a(5H)-yl)methoxy)-4-(4-(3-methyl-1H-pyrazole-1-carbonyl)azepan-1-yl)quinazolin-7-yl)-7-fluorobenzo[b]thiophene-3-carbonitrile]
11	5	11	27	367	163	N#Cc1c(N)sc2c(F)ccc(-c3c(Cl)cc4c(N5CCC(C(=O)N6CCOCC6)CC5)nc(OC[C@@]56CCCN5C[C@H](F)C6)nc4c3F)c12 [Example 241, 2-amino-4-(6-chloro-8-fluoro-2-(((2R,7aS)-2-fluorotetrahydro-1H-pyrrolizin-7a(5H)-yl)methoxy)-4-(4-(morpholine-4-carbonyl)piperidin-1-yl)quinazolin-7-yl)-7-fluorobenzo [b]thiophene-3-carbonitrile]
8	10	8	37	14	61	CC(=O)N(C)C(=O)C1CCN(c2nc(OC[C@@]34CCCN3C[C@H](F)C4)nc3c(F)c(-c4ccc(F)c5sc(N)c(C#N)c45)c(Cl)cc23)CC1 [Example 253, N-acetyl-1-(7-(2-amino-3-cyano-7-fluorobenzo[b]thiophen-4-yl)-6-chloro-8-fluoro-2-(((2R,7aS)-2-fluorotetrahydro-1H-pyrrolizin-7a(5H)-yl)methoxy)quinazolin-4-yl)-N-methylpiperidine-4-carboxamide]

Further lines, the molecule ahead of its results:

Compound	IC50 [1] [nM]	IC50 [2] [nM]	IC50 [3] [nM]	IC50 [4] [nM]	IC50 [5] [nM]	IC50 [6] [nM]
CCN(C(C)=O)C(=O)CCCN(C)c1nc(OC[C@@]23CCCN2C[C@H](F)C3)nc2c(F)c(-c3ccc(F)c4sc(N)c(C#N)c34)c(Cl)cc12 [Example 291, N-acetyl-4-((7-(2-amino-3-cyano-7-fluorobenzo[b]thiophen-4-yl)-6-chloro-8-fluoro-2-(((2R,7aS)-2-fluorotetrahydro-1H-pyrrolizin-7a(5H)-yl)methoxy)quinazolin-4-yl)(methyl)amino)-N-ethylbutanamide]	6	12	7	134	65	81
N#Cc1c(N)sc2c(F)ccc(-c3c(Cl)cc4c(N5CCN(S(=O)(=O)n6nccn6)CC5)nc(OC[C@@]56CCCN5C[C@H](F)C6)nc4c3F)c12 [Example 229, 4-(4-(4-((2H-1,2,3-triazol-2-yl)sulfonyl)piperazin-1-yl)-6-chloro-8-fluoro-2-(((2R,7aS)-2-fluorotetrahydro-1H-pyrrolizin-7a(5H)-yl)methoxy)quinazolin-7-yl)-2-amino-7-fluorobenzo[b]thiophene-3-carbonitrile]	586	161	631	333	> 10000	> 10000
CON(C(C)=O)C(=O)CCCN(C)c1nc(OC[C@@]23CCCN2C[C@H](F)C3)nc2c(F)c(-c3ccc(F)c4sc(N)c(C#N)c34)c(Cl)cc12 [Example 234, N-acetyl-4-((7-(2-amino-3-cyano-7-fluorobenzo[b]thiophen-4-yl)-6-chloro-8-fluoro-2-(((2R,7aS)-2-fluorotetrahydro-1H-pyrrolizin-7a(5H)-yl)methoxy)quinazolin-4-yl)(methyl)amino)-N-methoxybutanamide]	< 2	9	3	161	3	7
CCc1c(F)ccc2cc(O)cc(-c3ncc4c(N5C[C@H]6C[C@H](C(=O)n7ccc(C)n7)[C@H]6C5)nc(OC[C@@]56CCCN5C[C@H](F)C6)nc4c3F)c12 [Example 161, ((1S,5S,6S)-3-(7-(8-ethyl-7-fluoro-3-hydroxynaphthalen-1-yl)-8-fluoro-2-(((2R,7aS)-2-fluorotetrahydro-1H-pyrrolizin-7a(5H)-yl)methoxy)pyrido[4,3-d]pyrimidin-4-yl)-3-azabicyclo[3.2.0]heptan-6-yl)(3-methyl-1H-pyrazol-1-yl)methanone]	86	282	185	7280	717	> 10000
N#Cc1c(N)sc2c(F)ccc(-c3c(Cl)cc4c(N5CCN(C(=O)n6ccnc6)CC5)nc(OC[C@@]56CCCN5C[C@H](F)C6)nc4c3F)c12 [Example 231, 4-(4-(4-(1H-imidazole-1-carbonyl)piperazin-1-yl)-6-chloro-8-fluoro-2-(((2R,7aS)-2-fluorotetrahydro-1H-pyrrolizin-7a(5H)-yl)methoxy)quinazolin-7-yl)-2-amino-7-fluorobenzo[b]thiophene-3-carbonitrile]	5	13	17	25	444	4
Cc1ccn(C(=O)C2CCCN(c3nc(OC[C@@]45CCCN4C/C(=C\F)C5)nc4c(F)c(-c5ccc(F)c6sc(N)c(C#N)c56)c(Cl)cc34)CC2)n1 (stereo partly drawn) [Example 175, 2-amino-4-(6-chloro-8-fluoro-2-(((S,Z)-2-(fluoromethylene)tetrahydro-1H-pyrrolizin-7a(5H)-yl)methoxy)-4-(4-(3-methyl-1H-pyrazole-1-carbonyl)azepan-1-yl)quinazolin-7-yl)-7-fluorobenzo[b]thiophene-3-carbonitrile]	9	16	8	177	6	11
Cc1ccn(C(=O)C2CCCN(c3nc(OC[C@@]45CCCN4C[C@H](F)C5)nc4c(F)c(-c5csc6ccc(N)nc56)c(Cl)cc34)CC2)n1 (stereo partly drawn) [Example 215, (1-(7-(5-aminothieno[3,2-b]pyridin-3-yl)-6-chloro-8-fluoro-2-(((2R,7aS)-2-fluorotetrahydro-1H-pyrrolizin-7a(5H)-yl)methoxy)quinazolin-4-yl)azepan-4-yl)(3-methyl-1H-pyrazol-1-yl)methanone]	2400	11400	169	3920	242	> 10000
CN(CCCC(=O)N(C)c1ccccn1)c1nc(OC[C@@]23CCCN2C[C@H](F)C3)nc2c(F)c(-c3ccc(F)c4sc(N)c(C#N)c34)c(Cl)cc12 [Example 200, 4-((7-(2-amino-3-cyano-7-fluorobenzo[b]thiophen-4-yl)-6-chloro-8-fluoro-2-(((2R,7aS)-2-fluorotetrahydro-1H-pyrrolizin-7a(5H)-yl)methoxy)quinazolin-4-yl)(methyl)amino)-N-methyl-N-(pyridin-2-yl) butanamide]	2	5	4	86	729	112
